US20250136997A1, “COMPOSITIONS FOR SEQUESTERING ISOAMYL AMINE AND METHODS OF USE THEREFOR” (University of Louisville Research Foundation, Inc., priority 2023, published 2025)

Legend:
S100A8 promoter = test: Luciferase reporter with S100A8 promoter in microglia; format: cell-based, mouse
Source text: Construction of the S100A8 promoter into the luciferase plasmid vector. To determine the activity of IAA on the promoter of S100A8, a sequence containing 1,037 bp of S100A8 promoter (GENBANK® Accession #: L76381) upstream −1,037 to −1 from transcription start site (TSS) was constructed into the luciferase C1 vector (Addgene, #163523). A DNA fragment was generated by PCR amplification with genomic DNA extracted from mouse liver tissue using DNeasy Blood & Tissue Kits (Qiagen, #69504). PCR was conducted using Q5 High-Fidelity PCR kit (New England Biolabs® Inc.) with the primers 51008A-prom, pLuc163523 and genomic DNA, and luciferase C1 plasmid as the template, respectively. The two PCR products purified using the Gel extraction kit (Qiagen) were seamlessly assembled into the pLuc-S100p using the NEBuilder HiFi DNA Assembly Cloning Kit (New England Biolabs® Inc.). The plasmid pLuc-S100p was transformed into DH5a and selected using kanamycin resistance. The DNA sequence was confirmed by DNA sequencing.
Site-directed mutagenesis within the S100A8 promoter. A mutant of IAA with the potential binding site on the S100A8 promoter was generated with the oligonucleotide primer S1008A-prom-Mut, which was designed to specifically disrupt the putative S100A8 binding site at its promoter (FIG. 3C). Q5® Site-Directed Mutagenesis Kit (New England Biolabs, MA, USA) was used in conjunction with specific primers (Table 3) to introduce S100A8 promoter mutations in the pLuc-S100p construct according to the manufacturer's instructions. After mutant strand synthesis and ligation, resultant plasmids were introduced into E. coli and transformants were selected using kanamycin resistance. The DNA sequence of mutants was confirmed by DNA sequencing.

[1] = Electroencephalography (EEG) recording in mice; format: in vivo, mouse
Method: Electroencephalography (EEG) recording in mice. Groups of mice were anesthetized by peritoneal administration of ketamine (90 mg/kg) and xylazine (10 mg/kg) mixture. Mice that were not responsive to nociceptive stimuli were consider anesthetized and were administered the analgesic buprenorphine (0.1 mg/kg). The fur of the skull area was removed, placed on surgical bench and skin area were cleaned with betadine and 70% ethyl alcohol. The midline scalp skin was lifted using forceps and an incision made from the frontal cranial bone to the back of the parietal cranial bones. The skin was push aside and cleaned with betadine using cotton swabs. The skull was cleaned and marked for placement of electrodes. Two craniotomies 0.25-0.5 mm in diameter on the side of each hemisphere were established a 3 mm distance from the midline vertical fissure in the frontal and occipital regions; a hand-held drill (Kopf) with matching drill bits (0.5 mm) was used for the craniotomies. Four electrodes were placed in appropriate skull holes over the frontal cortex (FC) and occipital cortex (OC). A ground/reference electrode was also implanted in the most anterior region of cerebellum. Thus, two independent EEG channels were created for FC and OC on each side of the hemisphere. […]

[2] = Single-strand gel shift (SSGS) assay; format: binding; details: oligos (2 μM) incubated with IAA (10 μM), 15% PAGE
Method: Single-strand gel shift (SSGS) assay. To identify the metabolite binding site of S100A8, we synthesized a series of oligonucleotides (oligos) (Eurofins Genomics LLC, KY) specific to the response putative IAA binding site at the promoter region of S100A8. The oligos ([…]) were incubated with […] of IAA at 37° C. for 30 minutes following electrophoresis on a 15% native PAGE without SDS in 0.5×TBE buffer. The oligos were stained with ethidium bromide ([…]) and visualized under ultraviolet (UV) light.
Given induction of bacterial metabolite IAA causes the degeneration of microglia by elevation of S100A8 at both the transcription and protein level, we hypothesized that IAA might directly target the promoter of S100A8 and regulate the expression of S100A8. Studying the interaction of metabolites, particularly small molecules, with nucleic acid is challenging due to a lack of appropriate tags for the metabolites. Because of this challenge, we developed a strategy raising the possibility to investigate the interaction of small molecules and nucleic acid.
To test our hypothesis, we first synthesized short single-DNA strains (around 60 mer length each) whose sequences spanned the promoter of S100A8 (FIG. 13A and Table 5). The site and sequence of the promoter and transcription start site (TSS) were determined according to the entire mRNA (Accession #NC_000069.7 (90,576,378 . . . 90,577,341)) and genomic sequence (Accession #L76381) from the NCBI nucleic acid database (FIG. 13A). These DNA oligos (2 μM) were incubated with IAA (10 μM) following native PAGE analysis (FIG. 4A). […] To define the accurate binding site of IAA, we synthesized 10 mer length DNA oligos covering the sequence of S100p1 (Table 5). Unfortunately, the 10 mer length oligo lost the conformational mobility shift in PAGE (FIG. 13C). We then tested the mobility shift with 20 mer oligos. […]

Compound | effect of IAA on the S100A8 transcription (luciferase) (S100A8 promoter; p53 KO microglia with additional p53) | IAA-induced S100A8 activation (luciferase) (S100A8 promoter; p53 deficiency (p53 KO microglia)) | luciferase activity, S100A8 promoter sequence (S100A8 promoter; wild-type promoter, microglia, 12 h after IAA) | EEG rhythms coherence ([1]; IAA mice vs control, phage to aged mice) | distributions of DSA (bilateral symmetry) ([1]; IAA-treated young mice, phage-treated aged mice) | mobility shift on native PAGE after incubation with IAA [2]
CC(C)CCN [IAA, isoamylamine] | recovered | attenuated | activated | incoherence | asymmetric bilaterally | 
S100p1-G: CTGTGGGCAG CTGGCCAAGC (SEQ ID NO: 8), S100A8 promoter −57 . . . −38 (DNA CTGTGGGCAGCTGGCCAAGC; chemistry not given here) |  |  |  |  |  | displayed a shift
